Consider 54 compounds from the supplement of paper PMC12317010.

Structures can show the parent of a compound that is named as a salt.

The series is described as follows: collision cross section in nitrogen (drift tube, single-field); higher = larger gas-phase ion size.
Setting [1] is: ion type: [M-H], ion source: ESI, ion mode: Negative.
[2] abbreviates: ion type: [M+H], ion source: APCI, ion mode: Positive.
Setting [3] is: ion type: [M+H], ion source: ESI, ion mode: Positive.
Setting [4] is: ion type: [M+Na], ion source: ESI, ion mode: Positive.
Where [5] appears, read: ion type: [M+], ion source: APCI, ion mode: Positive.
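Also: chemical standards at 10 µM analysed by drift tube IMS-QTOF MS in about 3.95 torr nitrogen, mean of duplicate injections differing ≤1%, mass error below 10 ppm.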

As for `O=C(O)CCc1ccccc1` [Hydrocinnamic acid], under setting [1], the “collision cross section in nitrogen” value worked out at 139 Å².

Regarding `CC(C)(O)C(=O)Nc1ccc([N+](=O)[O-])c(C(F)(F)F)c1` [Hydroxyflutamide], the “collision cross section in nitrogen” value under setting [1] was determined as 157.4 Å².

Take `O=S(O)CO` [Hydroxymethanesulfinic acid monosodium salt dihydrate]: the “collision cross section in nitrogen” value under setting [1] turned out to be 112.7 Å².

With `OCCOCCN1CCN(C(c2ccccc2)c2ccc(Cl)cc2)CC1` (stereo unspecified) [Hydroxyzine hydrochloride], the “collision cross section in nitrogen” value under setting [2] is on record as 197.7 Å², the “collision cross section in nitrogen” value under setting [3] was 197.2 Å² and the “collision cross section in nitrogen” value under setting [4] was 195.7 Å².

On to `CCC(C)OC(=O)N1CCCCC1CCO` (stereo unspecified) [Icaridin], for which, under setting [4], the “collision cross section in nitrogen” value came out at 166.5 Å².

In the case of `O=P1(NCCCl)OCCCN1CCCl` (stereo unspecified) [Ifosfamide], the “collision cross section in nitrogen” value is listed as 148.1 Å² under setting [2], 148.8 Å² under setting [3] and 158.1 Å² under setting [4].

With `CCCCCCCCCc1ccc(OCCOCCO)cc1` [Igepal CO-210], the “collision cross section in nitrogen” value under setting [4] was found to be 191.3 Å².

Turning to `CC(=O)S[C@H](C(=O)N[C@H]1Cc2ccccc2[C@H]2CCC[C@@H](C(=O)O)N2C1=O)C(C)C` [Ilepatril], the “collision cross section in nitrogen” value worked out at 195.4 Å² under setting [2], 194.9 Å² under setting [3], 198.7 Å² under setting [4] and 193.7 Å² under setting [1].

`C=CCOC(Cn1ccnc1)c1ccc(Cl)cc1Cl` (stereo unspecified) [Imazalil]: the “collision cross section in nitrogen” value is 167.9 Å² under setting [2] and 167.9 Å² under setting [3].

As to `COCc1cnc(C2=NC(C)(C(C)C)C(=O)N2)c(C(=O)O)c1` (stereo unspecified) [Imazamox], the “collision cross section in nitrogen” value is, setting by setting: under setting [2], 172.2 Å²; under setting [3], 172.4 Å²; under setting [4], 188.9 Å²; under setting [1], 178.2 Å².

`Cc1cnc(C2=NC(=O)C(C)(C(C)C)N2)c(C(=O)O)c1` (stereo unspecified) [Imazapic]: the “collision cross section in nitrogen” value runs as follows: under setting [2], 162.2 Å²; under setting [3], 162.4 Å²; under setting [4], 178.8 Å²; under setting [1], 168.3 Å².

On to `CC(C)C1(C)N=C(c2ncccc2C(=O)O)NC1=O` (stereo unspecified) [Imazapyr], for which the “collision cross section in nitrogen” value amounted to 156.5 Å² under setting [2], 156.7 Å² under setting [3], 173.1 Å² under setting [4] and 161.8 Å² under setting [1].

On to `CC(C)C1(C)N=C(c2nc3ccccc3cc2C(=O)O)NC1=O` (stereo unspecified) [Imazaquin], for which the “collision cross section in nitrogen” value under setting [2] is 171.7 Å², the “collision cross section in nitrogen” value under setting [3] came to 171.7 Å², the “collision cross section in nitrogen” value under setting [4] is recorded as 188.4 Å² and the “collision cross section in nitrogen” value under setting [1] is given as 176.9 Å².

Take `O=[N+]([O-])/N=C1\NCCN1Cc1ccc(Cl)nc1` [Imidacloprid]: the “collision cross section in nitrogen” value is, setting by setting: under setting [3], 156 Å²; under setting [4], 159.5 Å²; under setting [1], 157.3 Å².

For `O=C(NCNC(=O)NC1C(=O)NC(=O)N1CO)NC1C(=O)NC(=O)N1CO` (stereo unspecified) [Imidazolidinyl urea], the “collision cross section in nitrogen” value under setting [4] was 183.4 Å².

`CN(C)CCCN1c2ccccc2CCc2ccccc21` [Imipramine hydrochloride]: the “collision cross section in nitrogen” value reads like this: under setting [2], 165.8 Å²; under setting [3], 166 Å²; under setting [4], 172.7 Å².

`CC1Cc2ccccc2N1NC(=O)c1ccc(Cl)c(S(N)(=O)=O)c1` (stereo unspecified) [Indapamide]: the “collision cross section in nitrogen” value by setting is: under setting [3], 187.6 Å²; under setting [4], 195.9 Å²; under setting [1], 186.6 Å².

As for `c1ccc2c(c1)-c1ccc3ccc4cccc5cc-2c1c3c45` [Indeno[1,2,3-cd]pyrene], the “collision cross section in nitrogen” value under setting [5] was found to be 156.7 Å².

With `CC(C)(C)NC(=O)[C@@H]1CN(Cc2cccnc2)CCN1C[C@@H](O)C[C@@H](Cc1ccccc1)C(=O)N[C@H]1c2ccccc2C[C@H]1O` [Indinavir sulfate], the “collision cross section in nitrogen” value runs as follows: under setting [2], 262.9 Å²; under setting [3], 262.3 Å²; under setting [4], 246.1 Å².

On to `O=C(O)CCCc1c[nH]c2ccccc12` [Indole-3-butyric acid], for which the “collision cross section in nitrogen” value under setting [1] worked out at 154.8 Å².

With `O=C(O)C(=O)Cc1c[nH]c2ccccc12` [Indole-3-pyruvic acid], the “collision cross section in nitrogen” value turned out to be 139.3 Å² under setting [2] and 141.6 Å² under setting [1].

With `c1ccc2[nH]ccc2c1` [Indole], the “collision cross section in nitrogen” value under setting [1] is listed as 119.5 Å².

Regarding `c1ccc2c(c1)CCN2` [Indoline], the “collision cross section in nitrogen” value under setting [2] is recorded as 120.8 Å².

As for `COc1ccc2c(c1)c(CC(=O)O)c(C)n2C(=O)c1ccc(Cl)cc1` [Indomethacin], the “collision cross section in nitrogen” value came to 181.2 Å² under setting [3] and 191.6 Å² under setting [4].

Take `COC(=O)N(C(=O)N1CO[C@@]2(C(=O)OC)Cc3cc(Cl)ccc3C2=N1)c1ccc(OC(F)(F)F)cc1` [Indoxacarb]: the “collision cross section in nitrogen” value under setting [2] is 206.6 Å², the “collision cross section in nitrogen” value under setting [3] was determined as 205.7 Å² and the “collision cross section in nitrogen” value under setting [4] was 220.4 Å².

On to `O=C(N[C@@H](Cc1ccccc1)[C@@H](O)C(=O)N1C[C@@H](O)[C@@H](O)C1)c1cc2cc(Cl)ccc2[nH]1` [Ingliforib], for which the “collision cross section in nitrogen” value amounted to 215.9 Å² under setting [2], 216 Å² under setting [3], 220.4 Å² under setting [4] and 206.2 Å² under setting [1].

Take `Oc1c(I)cc(I)c2cccnc12` [Iodoquinol]: the “collision cross section in nitrogen” value under setting [3] was 146.4 Å² and the “collision cross section in nitrogen” value under setting [1] is recorded as 147.3 Å².

Take `COC(=O)c1ccc(I)cc1S(=O)(=O)NC(=O)Nc1nc(C)nc(OC)n1` [Iodosulfuron methyl ester sodium salt]: the “collision cross section in nitrogen” value under setting [2] was 194.5 Å², the “collision cross section in nitrogen” value under setting [3] came out at 194.2 Å², the “collision cross section in nitrogen” value under setting [4] was 195.8 Å² and the “collision cross section in nitrogen” value under setting [1] is on record as 196.1 Å².

With `CCC(Cc1c(I)cc(I)c(N)c1I)C(=O)O` (stereo unspecified) [Iopanoic acid], under setting [5], the “collision cross section in nitrogen” value is 171.5 Å².

`CC(C)C1CCC(Cc2ccc(Cl)cc2)C1(O)Cn1cncn1` (stereo unspecified) [Ipconazole]: the “collision cross section in nitrogen” value by setting is: under setting [2], 173.8 Å²; under setting [3], 173.8 Å²; under setting [4], 179.6 Å².

`Cc1ccc(C(C)NC(=O)[C@@H](NC(=O)OC(C)C)C(C)C)cc1` (stereo partly specified) [Iprovalicarb]: the “collision cross section in nitrogen” value under setting [2] is listed as 184.2 Å² and the “collision cross section in nitrogen” value under setting [4] is on record as 183.5 Å².

On to `CC(C)(C)c1cc(CCC(=O)OCC(COC(=O)CCc2cc(C(C)(C)C)c(O)c(C(C)(C)C)c2)(COC(=O)CCc2cc(C(C)(C)C)c(O)c(C(C)(C)C)c2)COC(=O)CCc2cc(C(C)(C)C)c(O)c(C(C)(C)C)c2)cc(C(C)(C)C)c1O` [Irganox 1010], for which the “collision cross section in nitrogen” value under setting [4] was determined as 354.9 Å², the “collision cross section in nitrogen” value under setting [5] amounted to 355.6 Å² and the “collision cross section in nitrogen” value under setting [1] was determined as 354.9 Å².

Consider `CCOP(=S)(OCC)Oc1nc(Cl)n(C(C)C)n1` [Isazofos], for which the “collision cross section in nitrogen” value under setting [3] worked out at 166.9 Å² and the “collision cross section in nitrogen” value under setting [4] stood at 174.8 Å².

Regarding `CCC(=O)O[C@H]1C[C@@H]2CC[C@@]1(C)C2(C)C` [Isobornyl propanoate], the “collision cross section in nitrogen” value under setting [1] came to 155.8 Å².

On to `COP(N)(=S)Oc1ccccc1C(=O)OC(C)C` (stereo unspecified) [Isocarbophos], for which, under setting [4], the “collision cross section in nitrogen” value was 168.6 Å².

As for `CCOP(=S)(NC(C)C)Oc1ccccc1C(=O)OC(C)C` (stereo unspecified) [Isofenphos], the “collision cross section in nitrogen” value is given as 184.2 Å² under setting [4] and 173.7 Å² under setting [1].

As for `CC(=O)C(C)=CC1C(C)=CCCC1(C)C` (stereo not drawn) [Isomethyl-alpha-ionone], the “collision cross section in nitrogen” value under setting [1] was determined as 155 Å².

Take `NNC(=O)c1ccncc1` [Isoniazid]: under setting [1], the “collision cross section in nitrogen” value is recorded as 125.3 Å².

Take `CC(C)CCCCCCCCCCCCCCC(=O)O` [Isooctadecanoic acid]: the “collision cross section in nitrogen” value under setting [1] worked out at 177.8 Å².

On to `CC1(C)CC(N)CC(C)(CN)C1` (stereo unspecified) [Isophorone diamine], for which the “collision cross section in nitrogen” value under setting [3] came to 142.3 Å².

For the compound `NNC(=O)c1cccc(C(=O)NN)c1` [Isophthalyl dihydrazide], the “collision cross section in nitrogen” value under setting [3] was found to be 149.1 Å² and the “collision cross section in nitrogen” value under setting [1] is 145 Å².

For `CCCN(CCC)c1c([N+](=O)[O-])cc(C(C)C)cc1[N+](=O)[O-]` [Isopropalin], the “collision cross section in nitrogen” value under setting [2] is listed as 172.4 Å² and the “collision cross section in nitrogen” value under setting [1] came out at 175.1 Å².

With `CCCCCCCCCCCC(=O)OC(C)C` [Isopropyl Laurate], under setting [1], the “collision cross section in nitrogen” value is 165.3 Å².

As for `Cc1ccc(C(C)C)cc1O` [Isopropyl-o-cresol], the “collision cross section in nitrogen” value under setting [1] is 136.9 Å².

As for `CC(C)NCC(O)c1ccc(O)c(O)c1` (stereo unspecified) [Isoproterenol hydrochloride], the “collision cross section in nitrogen” value reads like this: under setting [3], 151 Å²; under setting [1], 151.9 Å².

With `CC(C)c1ccc(NC(=O)N(C)C)cc1` [Isoproturon], the “collision cross section in nitrogen” value was 152.9 Å² under setting [2], 152.1 Å² under setting [3], 158.8 Å² under setting [4] and 155.4 Å² under setting [1].

Consider `c1ccc2cnccc2c1` [Isoquinoline], for which the “collision cross section in nitrogen” value under setting [2] was 122.3 Å².

`CS(=O)(=O)c1cc(C(F)(F)F)ccc1C(=O)c1cnoc1C1CC1` [Isoxaflutole]: the “collision cross section in nitrogen” value was 185.2 Å² under setting [4] and 175.5 Å² under setting [1].

Regarding `CC1(C)[C@H](/C=C2\CCSC2=O)[C@@H]1C(=O)OCc1coc(Cc2ccccc2)c1` [Kadethrin], the “collision cross section in nitrogen” value under setting [4] turned out to be 192.5 Å².

As for `O=c1c(O)c(-c2ccc(O)cc2)oc2cc(O)cc(O)c12` [Kaempferol], the “collision cross section in nitrogen” value is listed as 163.2 Å² under setting [2], 162.8 Å² under setting [3] and 162.2 Å² under setting [1].

On to `C[C@H]1O[C@H](O[C@H]2[C@H](O)[C@@H](O)[C@@H](O)[C@H](O)[C@@H]2O)[C@@H](N)C[C@@H]1NC(=N)C(=O)O` [Kasugamycin hydrochloride], for which the “collision cross section in nitrogen” value by setting is: under setting [3], 165.9 Å²; under setting [1], 178 Å².

As to `CNC1(c2ccccc2Cl)CCCCC1=O` (stereo unspecified) [Ketamine hydrochloride], the “collision cross section in nitrogen” value under setting [2] stood at 149.7 Å², the “collision cross section in nitrogen” value under setting [3] was 149.4 Å² and the “collision cross section in nitrogen” value under setting [4] is 158.8 Å².

Take `CC(=O)N1CCN(c2ccc(OC[C@H]3CO[C@](Cn4ccnc4)(c4ccc(Cl)cc4Cl)O3)cc2)CC1` [Ketoconazole]: the “collision cross section in nitrogen” value reads like this: under setting [2], 217.3 Å²; under setting [3], 216.8 Å²; under setting [4], 225.3 Å².

In the case of `COc1c2occc2c(OC)c2c(=O)cc(C)oc12` [Khellin], the “collision cross section in nitrogen” value under setting [2] is reported as 151.6 Å², the “collision cross section in nitrogen” value under setting [3] was found to be 151.1 Å² and the “collision cross section in nitrogen” value under setting [4] turned out to be 167.5 Å².
